Toxic doses and inconclusive results are not listed. Cut-off read from the data, not from the text of the source: active = T/C of 150% or more; inactive = T/C below 125%.
Test system: L1210 leukemia ip in BDF1 mice, survival T/C
Experiment: NCI In Vivo Anticancer Drug Screen. Data for tumor model L1210 Leukemia (intraperitoneal) in B6D2F1 (BDF1) mice
Conditions: endpoint: mean survival time, higher = longer survival
In short: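 Tumor cells were implanted, animals were treated, and survival was followed. The result divides the treated measurement by the vehicle-control measurement.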

[1] = dose: 50.0 mg/kg/injection, schedule: Q01DX009 (ip), vehicle: saline
[2] = dose: 50.0 mg/kg/injection, schedule: Q01DX009 (ip), vehicle: Klucel (hydroxypropylcellulose) (HPC)
[3] = dose: 100.0 mg/kg/injection, schedule: Q01DX009 (ip), vehicle: Klucel (hydroxypropylcellulose) (HPC)
[4] = dose: 100.0 mg/kg/injection, schedule: Q04DX003 (ip), vehicle: saline with Tween-80
[5] = dose: 200.0 mg/kg/injection, schedule: Q01DX009 (ip), vehicle: Klucel (hydroxypropylcellulose) (HPC)
[6] = dose: 200.0 mg/kg/injection, schedule: Q04DX003 (ip), vehicle: saline with Tween-80
[7] = dose: 400.0 mg/kg/injection, schedule: Q04DX003 (ip), vehicle: saline with Tween-80
[8] = dose: 100.0 mg/kg/injection, schedule: Q01DX009 (ip), vehicle: saline
[9] = dose: 200.0 mg/kg/injection, schedule: Q01DX009 (ip), vehicle: saline
[10] = dose: 400.0 mg/kg/injection, schedule: Q01DX009 (ip), vehicle: Klucel (hydroxypropylcellulose) (HPC)
[11] = dose: 100.0 mg/kg/injection, schedule: Q01DX001 (ip), vehicle: saline
[12] = dose: 100.0 mg/kg/injection, schedule: Q04DX003 (ip), vehicle: Klucel (hydroxypropylcellulose) (HPC)
[13] = dose: 200.0 mg/kg/injection, schedule: Q04DX003 (ip), vehicle: Klucel (hydroxypropylcellulose) (HPC)
[14] = dose: 400.0 mg/kg/injection, schedule: Q04DX003 (ip), vehicle: Klucel (hydroxypropylcellulose) (HPC)
[15] = dose: 100.0 mg/kg/injection, schedule: Q01DX009 (ip), vehicle: saline with Tween-80
[16] = dose: 100.0 mg/kg/injection, schedule: Q04DX003 (ip), vehicle: saline
[17] = dose: 200.0 mg/kg/injection, schedule: Q04DX003 (ip), vehicle: saline
[18] = dose: 400.0 mg/kg/injection, schedule: Q04DX003 (ip), vehicle: saline

Measured: T/C

CN(C)CCCCl
inactive: dose: 25.0 mg/kg/injection, schedule: Q01DX Z (ip), vehicle: other 102 % of control | [1] 90 % of control | dose: 50.0 mg/kg/injection, schedule: Q01DX Z (ip), vehicle: other 102 % of control | dose: 75.0 mg/kg/injection, schedule: Q04DX003 (ip), vehicle: saline 101 % of control | dose: 100.0 mg/kg/injection, schedule: Q01DX Z (ip), vehicle: other 92 % of control | dose: 150.0 mg/kg/injection, schedule: Q04DX003 (ip), vehicle: saline 93 % of control

O=C(O)c1cc(Cl)ccc1Br
inactive: [2] 104 % of control | [3] 100 % of control | [4] 100 % of control | [5] 105 % of control | [6] 104 % of control | [7] 94 % of control

CCCCCCCCCCOCCCCCCCCCC
inactive: [1] 92 % of control | [8] 92 % of control | [9] 89 % of control

C1=C(c2ccccc2)CC2CCCC1N2Cc1ccccc1 (centres undefined)
inactive: dose: 12.5 mg/kg/injection, schedule: Q04DX003 (ip), vehicle: Klucel (hydroxypropylcellulose) (HPC) 102 % of control | dose: 25.0 mg/kg/injection, schedule: Q04DX003 (ip), vehicle: Klucel (hydroxypropylcellulose) (HPC) 102 % of control | dose: 50.0 mg/kg/injection, schedule: Q04DX003 (ip), vehicle: Klucel (hydroxypropylcellulose) (HPC) 94 % of control

Cc1cc(C)c2[nH]c(=O)c(C)c(C)c2c1Br
inactive: dose: 100.0 mg/kg/injection, schedule: Q01DX001 (ip), vehicle: other 102 % of control | dose: 200.0 mg/kg/injection, schedule: Q01DX001 (ip), vehicle: other 94 % of control | dose: 400.0 mg/kg/injection, schedule: Q01DX001 (ip), vehicle: other 100 % of control

CC(=O)Nc1ccc(S(=O)(=O)NC(=O)NC(C)C)cc1
inactive: [4] 103 % of control | [6] 97 % of control | [7] 100 % of control

Nc1ncnc(N)c1NC(=O)Cc1ccccc1
inactive: dose: 100.0 mg/kg/injection, schedule: Q01DX001 (ip), vehicle: saline with Tween-80 98 % of control | dose: 200.0 mg/kg/injection, schedule: Q01DX001 (ip), vehicle: saline with Tween-80 97 % of control | dose: 400.0 mg/kg/injection, schedule: Q01DX001 (ip), vehicle: saline with Tween-80 98 % of control

CC(C)NC(C)C
inactive: dose: 100.0 mg/kg/injection, schedule: Q01DX001 (ip), vehicle: Klucel (hydroxypropylcellulose) (HPC) 104 % of control | dose: 200.0 mg/kg/injection, schedule: Q01DX001 (ip), vehicle: Klucel (hydroxypropylcellulose) (HPC) 101 % of control | dose: 400.0 mg/kg/injection, schedule: Q01DX001 (ip), vehicle: Klucel (hydroxypropylcellulose) (HPC) 107 % of control

CCCCCOC(=O)CN(CC(=O)OCCCCC)c1ccccc1
inactive: [3] 88 % of control | [4] 101 % of control | [5] 99 % of control | [6] 98 % of control | [10] 91 % of control | [7] 95 % of control

O=C(Cc1ccccc1)c1ccc(N2CCOCC2)cc1
inactive: [11] 89 % of control | dose: 400.0 mg/kg/injection, schedule: Q01DX001 (ip), vehicle: saline 86 % of control

CCOc1ccc(/C=N/Nc2c3ccccc3nc3ccccc23)cc1OCC
inactive: [11] 92 % of control | dose: 200.0 mg/kg/injection, schedule: Q01DX001 (ip), vehicle: saline 95 % of control

COC(=O)C1C(O)C(C)C(O)C(C)/C=C\C=C(C)C(=O)Nc2c(C)c(OC(C)=O)c3c(c2O)C(=O)C(C)=C2OCOC(=C23)C(C)=CC(C)(O)C(O)C(C)C1O (centres undefined)
inactive: dose: 100.0 mg/kg/injection, schedule: Q04DX002 (ip), vehicle: Klucel (hydroxypropylcellulose) (HPC) 104 % of control | dose: 200.0 mg/kg/injection, schedule: Q04DX002 (ip), vehicle: Klucel (hydroxypropylcellulose) (HPC) 101 % of control | dose: 400.0 mg/kg/injection, schedule: Q04DX002 (ip), vehicle: Klucel (hydroxypropylcellulose) (HPC) 90 % of control

O=C(NCCCl)Nc1ccc(O)cc1
inactive: [8] 101 % of control | [12] 98 % of control | [9] 105 % of control | [13] 94 % of control | dose: 400.0 mg/kg/injection, schedule: Q01DX009 (ip), vehicle: saline 90 % of control | [14] 100 % of control

O=C(Nc1ccccc1)N1CC12CCCCC2
inactive: [12] 104 % of control | [5] 98 % of control | [13] 110 % of control | [10] 95 % of control | [14] 100 % of control

CC12CCC3C(CCC4=CC(=O)CCC43C)C1CCCN2 (centres undefined)
inactive: dose: 75.0 mg/kg/injection, schedule: Q01DX001 (sc), vehicle: steriod suspending solution 93 % of control | dose: 150.0 mg/kg/injection, schedule: Q01DX001 (sc), vehicle: steriod suspending solution 90 % of control

CC(=O)CC(=O)Nc1ccc([N+](=O)[O-])cc1
inactive: [15] 97 % of control | [16] 96 % of control | dose: 200.0 mg/kg/injection, schedule: Q01DX009 (ip), vehicle: saline with Tween-80 111 % of control | [17] 96 % of control | dose: 400.0 mg/kg/injection, schedule: Q01DX009 (ip), vehicle: saline with Tween-80 102 % of control | [18] 92 % of control

CCOc1ccc2nc(N)sc2c1
inactive: [2] 94 % of control | [3] 110 % of control | [16] 99 % of control | [5] 111 % of control | [17] 89 % of control

COC(=O)Nc1cc2c3c(c1)CCCN3CCC2
inactive: dose: 50.0 mg/kg/injection, schedule: Q01DX009 (ip), vehicle: saline with Tween-80 91 % of control | [15] 96 % of control

COc1cccc(C(=O)NC[n+]2ccccc2)c1
inactive: dose: 25.0 mg/kg/injection, schedule: Q01DX009 (ip), vehicle: saline 92 % of control | dose: 25.0 mg/kg/injection, schedule: Q04DX003 (ip), vehicle: saline 96 % of control | [1] 87 % of control | dose: 50.0 mg/kg/injection, schedule: Q04DX003 (ip), vehicle: saline 86 % of control | [16] 100 % of control

C1CCCC2(CC1)CCCCC2
inactive: dose: 75.0 mg/kg/injection, schedule: Q01DX001 (ip), vehicle: saline with Tween-80 94 % of control | dose: 150.0 mg/kg/injection, schedule: Q01DX001 (ip), vehicle: saline with Tween-80 90 % of control | dose: 300.0 mg/kg/injection, schedule: Q01DX001 (ip), vehicle: saline with Tween-80 95 % of control

C=C(Cl)CSC(=N)N
inactive: dose: 10.0 mg/kg/injection, schedule: Q01DX009 (ip), vehicle: saline 109 % of control | dose: 12.0 mg/kg/injection, schedule: Q01DX009 (ip), vehicle: Klucel (hydroxypropylcellulose) (HPC) 88 % of control | dose: 20.0 mg/kg/injection, schedule: Q01DX009 (ip), vehicle: saline 101 % of control | dose: 25.0 mg/kg/injection, schedule: Q01DX009 (ip), vehicle: Klucel (hydroxypropylcellulose) (HPC) 103 % of control | [16] 108 % of control | [17] 106 % of control | [18] 104 % of control

Source: PubChem BioAssay AID248 (DTP/NCI, 2004)
